Test results from ChEMBL document CHEMBL1201862, “PubChem BioAssay data set” (2004).
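All cell lines were grown in 96-well plates and treated with compound for 48 hours. Here, GI50 denotes the concentration required for 50% inhibition of growth.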 The source made the active and inactive calls. Rule as the data show it: active = GI50 up to about 1.1 µM and inactive = higher.

Columns and labels:
Assay in all cases: NCI-60 cell line screen, 48 h
A549 = tested on: A549
BT-549 = tested on: BT-549
EKVX = tested on: EKVX
HCT-15 = tested on: HCT-15
HOP-92 = tested on: HOP-92
Hs-578T = tested on: Hs-578T
KM12 = tested on: KM12
MDA-MB-435 = tested on: MDA-MB-435
NCI-H23 = tested on: NCI-H23
NCI-H522 = tested on: NCI-H522
OVCAR-8 = tested on: OVCAR-8
RXF 393 = tested on: RXF 393
SF-268 = tested on: SF-268
SK-OV-3 = tested on: SK-OV-3
UO-31 = tested on: UO-31
LOX IMVI = tested on: LOX IMVI
MDA-MB-231 = tested on: MDA-MB-231
NCI/ADR-RES = tested on: NCI/ADR-RES
RPMI-8226 = tested on: RPMI-8226
SR = tested on: SR

Compound | GI50 (A549) | GI50 (BT-549) | GI50 (EKVX) | GI50 (HCT-15) [µM] | GI50 (HOP-92) | GI50 (Hs-578T) | GI50 (KM12) | GI50 (MDA-MB-435) | GI50 (NCI-H23) | GI50 (NCI-H522) | GI50 (OVCAR-8) | GI50 (RXF 393) | GI50 (SF-268) | GI50 (SK-OV-3) | GI50 (UO-31) | GI50 (LOX IMVI) | GI50 (MDA-MB-231) | GI50 (NCI/ADR-RES) | GI50 (RPMI-8226) | GI50 (SR)
CCn1nc(C)c2c1C(=O)NC(C)C(=O)N2 (centres undefined) | > 100 µM (inactive) | > 100 µM (inactive) | > 100 µM (inactive) | 15.1 | > 100 µM (inactive) | > 100 µM (inactive) | > 10 µM (inactive) | > 100 µM (inactive) | > 100 µM (inactive) | > 100 µM (inactive) | > 100 µM (inactive) | > 100 µM (inactive) | > 100 µM (inactive) | > 100 µM (inactive) | > 100 µM (inactive) | – | – | – | – | –
CC1=C(C(=O)NNC(=O)CC#N)CC(C(=O)NNC(=O)CC#N)=C(C)N1 | > 100 µM (inactive) | > 100 µM (inactive) | > 100 µM (inactive) | > 100 | > 100 µM (inactive) | – | > 100 µM (inactive) | > 100 µM (inactive) | > 100 µM (inactive) | – | > 100 µM (inactive) | > 100 µM (inactive) | > 100 µM (inactive) | > 100 µM (inactive) | > 100 µM (inactive) | > 100 µM (inactive) | > 100 µM (inactive) | > 100 µM (inactive) | – | –
NC(=O)OCC(COc1ccc(Cl)cc1)OC(=O)c1ccccc1Cl (centres undefined) | 27.8 µM (inactive) | – | 25.4 µM (inactive) | 16.4 | 17.1 µM (inactive) | – | 21.6 µM (inactive) | – | 20.5 µM (inactive) | 16.9 µM (inactive) | 23.4 µM (inactive) | 12.6 µM (inactive) | 24.8 µM (inactive) | > 100 µM (inactive) | 22.3 µM (inactive) | 13.8 µM (inactive) | – | – | 21.8 µM (inactive) | 25.6 µM (inactive)
CC(Nc1cc(Cl)cc(Cl)c1)c1ccncc1 (centres undefined) | 27.8 µM (inactive) | 22.4 µM (inactive) | 22.4 µM (inactive) | 29.1 | – | 35.2 µM (inactive) | – | 22.2 µM (inactive) | 23.9 µM (inactive) | 15.3 µM (inactive) | 18.5 µM (inactive) | 20.7 µM (inactive) | 17.9 µM (inactive) | – | 13.3 µM (inactive) | 10.9 µM (inactive) | – | 20.5 µM (inactive) | 18.2 µM (inactive) | –
CCC(CC)n1cc(C(=O)NC(=O)NCCCCCOC(=O)CCCCCCCCCCC(=O)OCCCCCNC(=O)NC(=O)c2cn(C(CC)CC)c(=O)[nH]c2=O)c(=O)[nH]c1=O | > 100 µM (inactive) | – | > 100 µM (inactive) | > 100 | > 100 µM (inactive) | – | > 100 µM (inactive) | – | > 100 µM (inactive) | > 100 µM (inactive) | 64.3 µM (inactive) | 29.1 µM (inactive) | > 100 µM (inactive) | > 100 µM (inactive) | > 100 µM (inactive) | > 100 µM (inactive) | – | – | > 100 µM (inactive) | > 100 µM (inactive)
O=C(CSCC(=O)N/N=C/c1cccc(C(F)(F)F)c1)N/N=C/c1cccc(C(F)(F)F)c1 | – | > 100 µM (inactive) | > 100 µM (inactive) | > 100 | > 100 µM (inactive) | > 100 µM (inactive) | – | > 100 µM (inactive) | > 100 µM (inactive) | > 100 µM (inactive) | 2.9 µM (inactive) | > 100 µM (inactive) | > 100 µM (inactive) | > 100 µM (inactive) | > 100 µM (inactive) | > 100 µM (inactive) | – | > 100 µM (inactive) | – | –
CCCCNC(=S)Nc1nc(C(=O)NNS(=O)(=O)c2ccccc2)cs1 | 40.3 µM (inactive) | 32.7 µM (inactive) | 31.6 µM (inactive) | 36.2 | 64.7 µM (inactive) | – | 39.7 µM (inactive) | 21.4 µM (inactive) | 44 µM (inactive) | 28.8 µM (inactive) | 33.7 µM (inactive) | – | 27.8 µM (inactive) | 36.6 µM (inactive) | 26.1 µM (inactive) | 19.4 µM (inactive) | 29.4 µM (inactive) | 60.3 µM (inactive) | 31.2 µM (inactive) | 41.1 µM (inactive)
O=S(=O)(O)c1cc(S(=O)(=O)O)c2cc(/N=N/c3ccc(/N=N/c4ccc(/C=C/c5ccc(/N=[N+](/[O-])c6ccc(/C=C/c7ccc(/N=N/c8ccc(/N=N/c9ccc%10cc(S(=O)(=O)O)cc(S(=O)(=O)O)c%10c9)cc8)cc7S(=O)(=O)O)c(S(=O)(=O)O)c6)cc5S(=O)(=O)O)c(S(=O)(=O)O)c4)cc3)ccc2c1 | > 65.3 µM (inactive) | – | 82.6 µM (inactive) | 52.6 | > 58.5 µM (inactive) | – | 26.7 µM (inactive) | – | > 77.8 µM (inactive) | > 55.8 µM (inactive) | > 78.7 µM (inactive) | > 50.9 µM (inactive) | > 69 µM (inactive) | > 22.3 µM (inactive) | 70.8 µM (inactive) | > 59.7 µM (inactive) | – | > 100 µM (inactive) | 46.5 µM (inactive) | –
COC1C(OC(N)=O)C(O)C(Oc2ccc3c(O)c(NC(=O)c4ccc(O)c(CC=C(C)C)c4)c(=O)oc3c2C)OC1(C)C (centres undefined) | > 100 µM (inactive) | > 100 µM (inactive) | > 100 µM (inactive) | 60.5 | – | – | 63 µM (inactive) | 71.8 µM (inactive) | – | – | > 100 µM (inactive) | > 100 µM (inactive) | > 100 µM (inactive) | > 100 µM (inactive) | > 100 µM (inactive) | – | > 100 µM (inactive) | > 100 µM (inactive) | 28.4 µM (inactive) | 18.4 µM (inactive)
